Results reported in article PMC8669712, “G Protein-Coupled Receptor GPR35 Suppresses Lipid Accumulation in Hepatocytes” (ACS Pharmacology & Translational Science, 2021).
“Also recorded” adds a separate entry of the source.

Columns and labels:
[1] = tested on: clone 27 HepG2 cells transfected with human GPR35a; assay: Cellular impedance in clone 27 cells transiently transfected with human GPR35a; assay type: cell-based; conditions: lodoxamide 1 × 10^–8 M
Experimental: Briefly, CRISPR KO cells were transiently transfected 24 h with the human GPR35a expression vector using LipofectAMINE 3000 reagent, according to the manufacturer’s instructions. […] Alternatively, after 24 h transfection, cells were seeded onto a 12-well plate (1 × 10^5 cells/well) for 24 h at 37 °C. Then, cells were incubated with T0901317 and/or GPR35 agonists (in MEM containing 5% FBS) for 72 h. After the drug treatment, cells were stained with Oil Red O to examine the levels of lipid accumulation. Each experiment was repeated at least three times.
HepG2 cells were seeded onto xCELLigence E plates (2 × 10^4 cells/well) and incubated for 24 h at 37 °C. To evaluate GPR35 activation and its downstream G protein signaling, HepG2 cells or primary mouse hepatocytes were exposed to GPR35 antagonists or G protein inhibitors 1 h (overnight for Pertussis toxin) prior to GPR35 agonist stimulation. After the addition of GPR35 agonist or vehicle control, the impedance (represented as “cell index”) was recorded every 30 s over a 2 h period using xCELLigence RTCA (Agilent). Each experiment was repeated at least three times.

[2] = tested on: hepatocytes from hGPR35a-HA-expressing mice; assay: Label-free cellular impedance assay in hepatocytes from hGPR35a-HA-expressing mice; assay type: cell-based, mouse; conditions: lodoxamide 1 × 10^–7 M
[3] = tested on: hepatocytes from hGPR35a-HA-expressing mice; assay: Oil Red O lipid accumulation in hepatocytes from hGPR35a-HA-expressing mice; assay type: cell-based, mouse
Experimental: All mice were bred as WT or homozygous onto a C57BL/6N background. Animals were cared for in accordance with national guidelines on animal experimentation. All animal experiments were conducted under a home office license held by the authors. WT, humanized GPR35a, or KO male mice at 3–4 months of age were used in this study. These mice were fed ad libitum with a standard mouse chow diet. Briefly, mouse primary hepatocytes were isolated using a two-step collagenase perfusion technique.[45] Twelve-well plates or xCELLigence E plates were coated with rat tail collagen I solution (Thermo Fisher Scientific) overnight at 37 °C and washed with PBS. Isolated primary hepatocytes were seeded onto 12-well plates (8 × 10^4 cells/well) or xCELLigence E plates (2 × 10^4 cells/well) in Wiliam’s E medium (Thermo Fisher Scientific) supplemented with 10% fetal bovine serum (FBS) and 1× penicillin/streptomycin. Cells were maintained for 7 days with a fresh medium change every other day. […] Human GPR35 activation was examined using xCELLigence RTCA assay. To access the impact of GPR35 agonists on the lipid accumulation, WT and humanized GPR35 hepatocytes were incubated with T0901317 and/or GPR35 agonists/antagonists, as indicated (in DMEM medium containing 5% FBS and 1.5% BSA) for 48 h. Alternatively, GPR35 KO hepatocytes were incubated with drugs, as indicated for 5 days. In the T0901317 pretreatment model, human GPR35 hepatocytes were stimulated with T0901317 for 2 days and then further treated with lodoxamide for a further 3 days. After each drug treatment, hepatocytes were stained with Oil Red O and quantified as described. Each experiment was repeated at least three times.
Lipid accumulation was measured by Oil Red O staining. A working solution of Oil Red O was prepared, as described with modification.[46] After drug treatment, cells were washed with PBS and fixed with formalin solution for 1 h at 4 °C. Then, cells were stained with Oil Red O working solution for 10 min at room temperature. After PBS washing, Oil Red O was extracted from cells using 150 μl of isopropanol and OD510 nm measured. After the lipid extraction, cells were further soaked in PBS overnight at 4 °C. These cells were then stained with Hoechst 33342 (1 μg/mL) and the fluorescence intensity of Hoechst (represents the DNA content in cells) was measured using a CLARIOstar plate reader (BMG LABTECH). Oil Red O accumulation was corrected for differences in DNA content and expressed as relative absorbency, taking the control condition (treated with vehicle only) as 1.

HepG2 cells = assay: Oil Red O staining of LXR (T0901317)-induced lipid accumulation in HepG2 cells; assay type: cell-based, human
Experimental: Human hepatocellular carcinoma HepG2 cells were grown in Minimum Essential Medium (MEM) supplemented with 10% fetal bovine serum (FBS), 2 mM L-glutamine, 1× non-essential amino acid, 1 mM sodium pyruvate, and 1× penicillin/streptomycin. Materials for cell culture were all from Sigma-Aldrich (St. Louis, MO) or Thermo Fisher Scientific (Waltham, MA). Cells were incubated in a humidified CO2 incubator at 37 °C. […] Cells were seeded onto a 12-well plate (1 × 10^5 cells/well) for 24 h prior to drug treatment. […] Lipid accumulation was measured by Oil Red O staining.

[4] = tested on: primary mouse hepatocytes; set-up: method as in Nam et al. 37; conditions: ref Nam et al. 37; read-out: EC50 to limit lipid accumulation in mouse hepatocytes; cited from earlier work

- EC50 (HepG2 cells; Homo sapiens, co-incubation with T0901317 4 × 10^–6 M, 48 h, Oil Red O, read-out: EC50 for reduction in the lipid accumulation induced by T0901317): 95 nM
SMILES: N#Cc1cc(NC(=O)C(=O)O)c(Cl)c(NC(=O)C(=O)O)c1 [lodoxamide, 2-[2-chloro-5-cyano-3-(oxaloamino)anilino]-2-oxoacetic acid]
- impedance signal in clone 27 cells transfected with human GPR35a [1]: stimulated signal
- cellular impedance response in hepatocytes from hGPR35a-HA-expressing mice [2]: time-dependent increase in cellular impedance
- EC50 ([3]; Mus musculus, Hepatocyte, hepatocytes from hGPR35a-HA-expressing mice, co-addition with T0901317 8 × 10^–6 M, 48 h, read-out: EC50 for prevention of T0901317-induced lipid accumulation): 17 nM
- reversal of pre-established lipid accumulation ([3]; T0901317 8 × 10^–6 M for 2 days, then lodoxamide added with continued T0901317): sufficient to reduce lipid levels to those observed in the absence of T0901317; also recorded: reduced to basal
- potency in the reversal setting relative to co-addition ([3]; T0901317 pretreatment model): less potent than when added alongside T0901317
- effect on basal lipid accumulation without co-addition of T0901317 (HepG2 cells; 1 × 10^–5 M): no significant effect
- effect of T0901317 on lipid accumulation at maximally effective concentrations of lodoxamide (HepG2 cells; T0901317 4 × 10^–6 M, 48 h): fully suppressed
- EC50 [4]: 6.1 nM
